Laboratory results taken from patent US9006450B2 (Boehringer Ingelheim International GmbH, priority 2010, dated 2015).

Target: T1, human ACC2 (Homo sapiens, UniProt O00763)
T1 construct: made in house; host or cells: insect cells (baculoviral expression system)
Experiment: ACC2 assay, spectrophotometric 384 well assay (NADH-linked, coupled lactate dehydrogenase/pyruvate kinase)
Assay type: biochemical
Settings: ACC2 assay, hACC2 construct lacking 128 N-terminal amino acids, 25° C., 340 nm; read-out: IC50
Procedure, shortened: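 Human ACC2 lacking N-terminal 128 aa, baculovirus/insect-cell expressed, anion-exchange purified; 100 mM Tris pH 7.5, 10 mM citrate, 25 mM KHCO3, 1% DMSO. Started with 200 μM NADH and acetyl-CoA plus 500 μM ATP; PK/LDH-coupled A340 decrease read 15 min at 25° C. IC50 by nonlinear fit of low-control-subtracted slopes.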

T1 sequence (O00763 129-2458 limits assumed): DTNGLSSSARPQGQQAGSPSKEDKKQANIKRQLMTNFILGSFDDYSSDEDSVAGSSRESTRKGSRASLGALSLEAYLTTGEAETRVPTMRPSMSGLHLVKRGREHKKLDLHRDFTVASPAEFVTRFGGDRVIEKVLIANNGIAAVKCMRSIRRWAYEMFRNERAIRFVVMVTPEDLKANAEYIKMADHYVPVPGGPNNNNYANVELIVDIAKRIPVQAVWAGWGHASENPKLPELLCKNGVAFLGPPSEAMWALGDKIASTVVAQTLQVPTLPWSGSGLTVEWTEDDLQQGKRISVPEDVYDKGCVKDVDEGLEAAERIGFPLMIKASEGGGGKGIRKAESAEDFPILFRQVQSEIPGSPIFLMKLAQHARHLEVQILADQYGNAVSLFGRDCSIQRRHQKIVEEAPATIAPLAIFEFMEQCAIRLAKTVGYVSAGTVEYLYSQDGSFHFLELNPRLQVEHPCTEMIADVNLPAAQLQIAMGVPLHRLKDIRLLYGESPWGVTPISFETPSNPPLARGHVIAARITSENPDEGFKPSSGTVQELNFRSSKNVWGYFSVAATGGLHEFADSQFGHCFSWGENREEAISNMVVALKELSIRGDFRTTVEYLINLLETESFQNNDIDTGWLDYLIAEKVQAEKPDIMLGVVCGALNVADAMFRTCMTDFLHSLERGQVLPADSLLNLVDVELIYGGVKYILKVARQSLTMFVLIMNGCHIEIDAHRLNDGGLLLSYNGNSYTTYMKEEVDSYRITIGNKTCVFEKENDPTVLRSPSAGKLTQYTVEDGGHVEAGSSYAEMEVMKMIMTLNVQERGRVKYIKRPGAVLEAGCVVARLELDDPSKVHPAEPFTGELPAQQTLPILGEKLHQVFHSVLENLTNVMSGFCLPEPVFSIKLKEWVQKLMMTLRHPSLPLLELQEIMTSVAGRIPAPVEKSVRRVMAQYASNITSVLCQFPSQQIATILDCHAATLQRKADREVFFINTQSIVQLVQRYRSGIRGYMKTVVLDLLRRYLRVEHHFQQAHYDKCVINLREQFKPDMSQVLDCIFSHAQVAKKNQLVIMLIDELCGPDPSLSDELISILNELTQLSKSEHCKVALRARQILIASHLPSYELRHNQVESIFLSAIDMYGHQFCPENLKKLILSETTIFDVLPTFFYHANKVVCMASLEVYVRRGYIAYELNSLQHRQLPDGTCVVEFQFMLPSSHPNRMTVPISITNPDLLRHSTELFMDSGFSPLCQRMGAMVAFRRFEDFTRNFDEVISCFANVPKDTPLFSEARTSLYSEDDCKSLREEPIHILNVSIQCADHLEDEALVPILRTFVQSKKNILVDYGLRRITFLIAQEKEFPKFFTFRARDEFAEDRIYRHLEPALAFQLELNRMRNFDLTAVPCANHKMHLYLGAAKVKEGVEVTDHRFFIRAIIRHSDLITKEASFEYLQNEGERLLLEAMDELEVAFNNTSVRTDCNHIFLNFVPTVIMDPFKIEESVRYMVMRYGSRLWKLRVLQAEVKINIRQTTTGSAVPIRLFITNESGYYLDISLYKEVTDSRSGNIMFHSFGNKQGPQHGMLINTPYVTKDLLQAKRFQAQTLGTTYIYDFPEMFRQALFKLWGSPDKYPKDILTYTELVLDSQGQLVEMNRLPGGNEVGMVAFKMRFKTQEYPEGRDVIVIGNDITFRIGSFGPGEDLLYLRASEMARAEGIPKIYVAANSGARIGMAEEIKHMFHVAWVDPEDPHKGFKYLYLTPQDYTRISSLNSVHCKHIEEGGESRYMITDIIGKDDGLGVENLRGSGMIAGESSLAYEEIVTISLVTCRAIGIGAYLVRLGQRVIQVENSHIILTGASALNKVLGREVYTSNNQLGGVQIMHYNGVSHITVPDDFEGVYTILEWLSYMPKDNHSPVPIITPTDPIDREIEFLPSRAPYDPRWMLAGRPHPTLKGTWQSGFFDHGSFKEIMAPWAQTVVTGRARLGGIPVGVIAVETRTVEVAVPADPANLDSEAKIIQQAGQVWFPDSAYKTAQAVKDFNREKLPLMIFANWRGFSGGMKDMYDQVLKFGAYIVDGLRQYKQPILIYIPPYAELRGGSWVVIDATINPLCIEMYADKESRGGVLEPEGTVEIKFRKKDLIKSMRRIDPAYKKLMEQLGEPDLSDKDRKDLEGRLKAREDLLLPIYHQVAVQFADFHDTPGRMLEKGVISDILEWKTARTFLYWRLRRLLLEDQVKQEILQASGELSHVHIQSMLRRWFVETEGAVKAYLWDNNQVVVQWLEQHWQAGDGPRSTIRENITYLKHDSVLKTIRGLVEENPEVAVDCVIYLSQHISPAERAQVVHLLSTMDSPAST

IC50	SMILES
0.18 µM	CCCOc1cc(N2CCC(c3ccc([C@H](C)NC(C)=O)cc3)CC2)ncn1 [Example 11.1]
0.08 µM	CC(=O)N[C@@H](C)c1ccc(C2CCN(c3cc(OC(C)C)ncn3)CC2)cc1 [Example 11.2]
0.25 µM	CC(=O)N[C@@H](C)c1ccc(C2CCN(c3cc(OCCC4CC4)ncn3)CC2)cc1 [Example 11.3]
0.45 µM	CC(=O)N[C@@H](C)c1ccc(C2CCN(c3ccnc(OCCC4CC4)n3)CC2)cc1 [Example 11.4]
0.2 µM	CC(=O)N[C@@H](C)c1ccc(C2CCN(c3cc(Oc4ccc(F)cc4)ncn3)CC2)cc1 [Example 11.5]
0.18 µM	CC(=O)N[C@@H](C)c1ccc(C2CCN(c3ccnc(Oc4ccc(F)cc4)n3)CC2)cc1 [Example 11.6]
0.17 µM	CC(=O)N[C@@H](C)c1ccc(C2CCN(c3cc(OC4CCCC4)ncn3)CC2)cc1 [Example 11.7]
0.49 µM	CC(=O)N[C@@H](C)c1ccc(C2CCN(c3ccnc(OC4CCCC4)n3)CC2)cc1 [Example 11.8]
0.38 µM	CC(=O)N[C@@H](C)c1ccc(C2CCN(c3ccnc(OCC4CCCC4)n3)CC2)cc1 [Example 11.9]
0.27 µM	CC(=O)N[C@@H](C)c1ccc(C2CCN(c3cc(OCC4CCCC4)ncn3)CC2)cc1 [Example 11.10]
0.82 µM	CC(=O)N[C@@H](C)c1ccc(C2CCN(c3ccnc(OCCC(C)(C)C)n3)CC2)cc1 [Example 11.11]
0.3 µM	CC(=O)N[C@@H](C)c1ccc(C2CCN(c3cc(OCCC(C)(C)C)ncn3)CC2)cc1 [Example 11.12]
4.6 µM	CC(=O)N[C@@H](C)c1ccc(C2CCN(c3ccnc(OCCc4ccccc4)n3)CC2)cc1 [Example 11.13]
3.5 µM	CC(=O)N[C@@H](C)c1ccc(C2CCN(c3cc(OCCc4ccccc4)ncn3)CC2)cc1 [Example 11.14]
0.23 µM	CC(=O)N[C@@H](C)c1ccc(C2CCN(c3cc(OCC(C)C)ncn3)CC2)cc1 [Example 11.15]
0.43 µM	CC(=O)N[C@@H](C)c1ccc(C2CCN(c3ccnc(OCC(C)C)n3)CC2)cc1 [Example 11.16]
1.2 µM	CC(=O)N[C@@H](C)c1ccc(C2CCN(c3cc(O[C@H]4CCOC4)ncn3)CC2)cc1 [Example 11.17]
6.2 µM	CC(=O)N[C@@H](C)c1ccc(C2CCN(c3ccnc(O[C@H]4CCOC4)n3)CC2)cc1 [Example 11.18]
0.88 µM	CC#CCOc1cc(N2CCC(c3ccc([C@H](C)NC(C)=O)cc3)CC2)ncn1 [Example 11.19]
1.3 µM	CC#CCOc1nccc(N2CCC(c3ccc([C@H](C)NC(C)=O)cc3)CC2)n1 [Example 11.20]
0.89 µM	CCC(CC)Oc1nccc(N2CCC(c3ccc([C@H](C)NC(C)=O)cc3)CC2)n1 [Example 11.21]
0.82 µM	CCC(CC)Oc1cc(N2CCC(c3ccc([C@H](C)NC(C)=O)cc3)CC2)ncn1 [Example 11.22]
1.5 µM	CC(=O)N[C@@H](C)c1ccc(C2CCN(c3ccnc(OCc4ccccc4)n3)CC2)cc1 [Example 11.23]
0.37 µM	CC(=O)N[C@@H](C)c1ccc(C2CCN(c3cc(OCc4ccccc4)ncn3)CC2)cc1 [Example 11.24]
0.24 µM	CC(=O)N[C@@H](C)c1ccc(C2CCN(c3cc(Oc4ccccc4F)ncn3)CC2)cc1 [Example 11.25]
0.38 µM	CC(=O)N[C@@H](C)c1ccc(C2CCN(c3ccnc(Oc4ccccc4F)n3)CC2)cc1 [Example 11.26]

IC50	SMILES
0.3 µM	CC(=O)N[C@@H](C)c1ccc(C2CCN(c3cc(Oc4cccc(F)c4)ncn3)CC2)cc1 [Example 11.27]
0.35 µM	CC(=O)N[C@@H](C)c1ccc(C2CCN(c3ccnc(Oc4cccc(F)c4)n3)CC2)cc1 [Example 11.28]
3.8 µM	COCCOc1cc(N2CCC(c3ccc([C@H](C)NC(C)=O)cc3)CC2)ncn1 [Example 11.29]
8.4 µM	COCCOc1nccc(N2CCC(c3ccc([C@H](C)NC(C)=O)cc3)CC2)n1 [Example 11.30]
0.69 µM	COc1cccc(Oc2cc(N3CCC(c4ccc([C@H](C)NC(C)=O)cc4)CC3)ncn2)c1 [Example 11.31]
1.1 µM	COc1cccc(Oc2nccc(N3CCC(c4ccc([C@H](C)NC(C)=O)cc4)CC3)n2)c1 [Example 11.32]
0.59 µM	CC(=O)N[C@@H](C)c1ccc(C2CCN(c3cc(OCc4cccnc4)ncn3)CC2)cc1 [Example 11.33]
23.2 µM	CC(=O)N[C@@H](C)c1ccc(C2CCN(c3ccnc(OCc4cccnc4)n3)CC2)cc1 [Example 11.34]
0.71 µM	CC(=O)N[C@@H](C)c1ccc(C2CCN(c3cc(OCC4(C#N)CC4)ncn3)CC2)cc1 [Example 11.35]
0.58 µM	CCOc1cc(N2CCC(c3ccc([C@H](C)NC(C)=O)cc3)CC2)ncn1 [Example 11.36]
0.93 µM	CCOc1nccc(N2CCC(c3ccc([C@H](C)NC(C)=O)cc3)CC2)n1 [Example 11.37]
0.56 µM	CC(=O)N[C@@H](C)c1ccc(C2CCN(c3ccnc(OC(C)C)n3)CC2)cc1 [Example 11.38]
6.6 µM	CC(=O)N[C@@H](C)c1ccc(C2CCN(c3ccnc(NC(C)c4ccccc4)n3)CC2)cc1 (stereo partly shown) [Example 11.39]
8.1 µM	CC(=O)N[C@@H](C)c1ccc(C2CCN(c3cc(NC(C)c4ccccc4)ncn3)CC2)cc1 (stereo partly shown) [Example 11.40]
3.1 µM	CCCNc1nccc(N2CCC(c3ccc([C@H](C)NC(C)=O)cc3)CC2)n1 [Example 11.41]
7.1 µM	CCCNc1cc(N2CCC(c3ccc([C@H](C)NC(C)=O)cc3)CC2)ncn1 [Example 11.42]
3.3 µM	CC(=O)N[C@@H](C)c1ccc(C2CCN(c3ccnc(NC(C)C)n3)CC2)cc1 [Example 11.43]
5 µM	CC(=O)N[C@@H](C)c1ccc(C2CCN(c3cc(NC(C)C)ncn3)CC2)cc1 [Example 11.44]
1.5 µM	CC(=O)N[C@@H](C)c1ccc(C2CCN(c3ccnc(NC4CCC4)n3)CC2)cc1 [Example 11.45]
2.8 µM	CC(=O)N[C@@H](C)c1ccc(C2CCN(c3cc(NC4CCC4)ncn3)CC2)cc1 [Example 11.46]
0.54 µM	CC(=O)N[C@@H](C)c1ccc(C2CCN(c3ccnc(N(C)C(C)C)n3)CC2)cc1 [Example 11.47]
0.58 µM	CC(=O)N[C@@H](C)c1ccc(C2CCN(c3cc(N(C)C(C)C)ncn3)CC2)cc1 [Example 11.48]
0.35 µM	CC(=O)N[C@@H](C)c1ccc(C2CCN(c3ccnc(N4CCc5ccccc54)n3)CC2)cc1 [Example 11.49]
4.2 µM	CCNc1nccc(N2CCC(c3ccc([C@H](C)NC(C)=O)cc3)CC2)n1 [Example 11.50]
7.8 µM	CCNc1cc(N2CCC(c3ccc([C@H](C)NC(C)=O)cc3)CC2)ncn1 [Example 11.51]
18.5 µM	CC(=O)N[C@@H](C)c1ccc(C2CCN(c3cc(-n4ccc(=N)cc4)ncn3)CC2)cc1 [Example 11.52]

IC50	SMILES
6 µM	COc1ccc(Nc2cc(N3CCC(c4ccc([C@H](C)NC(C)=O)cc4)CC3)ncn2)cc1 [Example 11.53]
3.7 µM	COc1ccc(Nc2nccc(N3CCC(c4ccc([C@H](C)NC(C)=O)cc4)CC3)n2)cc1 [Example 11.54]
3.7 µM	CC(=O)N[C@@H](C)c1ccc(C2CCN(c3cc(NCc4ccccc4)ncn3)CC2)cc1 [Example 11.55]
2.3 µM	CC(=O)N[C@@H](C)c1ccc(C2CCN(c3ccnc(NCc4ccccc4)n3)CC2)cc1 [Example 11.56]
0.42 µM	CC(=O)N[C@@H](C)c1ccc(C2CCN(c3cc(N4CCCCC4)ncn3)CC2)cc1 [Example 11.57]
0.26 µM	CC(=O)N[C@@H](C)c1ccc(C2CCN(c3ccnc(N4CCCCC4)n3)CC2)cc1 [Example 11.58]
6.1 µM	CC(=O)N[C@@H](C)c1ccc(C2CCN(c3cc(NCc4ccco4)ncn3)CC2)cc1 [Example 11.59]
5.3 µM	CC(=O)N[C@@H](C)c1ccc(C2CCN(c3ccnc(NCc4ccco4)n3)CC2)cc1 [Example 11.60]
1.3 µM	CC(=O)N[C@@H](C)c1ccc(C2CCN(c3ccnc(NC4CCCC4)n3)CC2)cc1 [Example 11.61]
3.3 µM	CCCCNc1cc(N2CCC(c3ccc([C@H](C)NC(C)=O)cc3)CC2)ncn1 [Example 11.62]
2 µM	CCCCNc1nccc(N2CCC(c3ccc([C@H](C)NC(C)=O)cc3)CC2)n1 [Example 11.63]
17.9 µM	COCCNc1nccc(N2CCC(c3ccc([C@H](C)NC(C)=O)cc3)CC2)n1 [Example 11.64]
4.7 µM	CC(=O)N[C@@H](C)c1ccc(C2CCN(c3cc(NCC(C)C)ncn3)CC2)cc1 [Example 11.65]
2.2 µM	CC(=O)N[C@@H](C)c1ccc(C2CCN(c3ccnc(NCC(C)C)n3)CC2)cc1 [Example 11.66]
26.4 µM	CC(=O)N[C@@H](C)c1ccc(C2CCN(c3cc(NCc4ccccn4)ncn3)CC2)cc1 [Example 11.67]
0.61 µM	CCCN(C)c1cc(N2CCC(c3ccc([C@H](C)NC(C)=O)cc3)CC2)ncn1 [Example 11.68]
0.2 µM	CCCN(C)c1nccc(N2CCC(c3ccc([C@H](C)NC(C)=O)cc3)CC2)n1 [Example 11.69]
4.5 µM	CC(=O)N[C@@H](C)c1ccc(C2CCN(c3cc(NCCC(C)C)ncn3)CC2)cc1 [Example 11.70]
2.3 µM	CC(=O)N[C@@H](C)c1ccc(C2CCN(c3ccnc(NCCC(C)C)n3)CC2)cc1 [Example 11.71]
10.5 µM	CC(=O)N[C@@H](C)c1ccc(C2CCN(c3cc(NCCc4ccccc4)ncn3)CC2)cc1 [Example 11.72]
15.6 µM	CC(=O)N[C@@H](C)c1ccc(C2CCN(c3ccnc(NC4CCOCC4)n3)CC2)cc1 [Example 11.73]
8.3 µM	CC(=O)N[C@@H](C)c1ccc(C2CCN(c3cc(NC4CCOCC4)ncn3)CC2)cc1 [Example 11.74]
3.8 µM	CC(=O)N[C@@H](C)c1ccc(C2CCN(c3ccnc(N[C@H](C)C(C)C)n3)CC2)cc1 [Example 11.75]
6 µM	CC(=O)N[C@@H](C)c1ccc(C2CCN(c3cc(N[C@H](C)C(C)C)ncn3)CC2)cc1 [Example 11.76]
